The record followed here is US20190029257A1, “APPLICATION FOR HERBICIDE-TOLERANT PROTEIN” (BEIJING DABEINONG TECHNOLOGY GROUP CO., LTD., priority 2016, published 2019).

The structures appear in SMILES notation.

Holding throughout (format): in vivo
Test [1] deals with At cytoplasmic ALT-2-01 T1 plants. The experiment in a line: Herbicide tolerance of Arabidopsis thaliana T1 plants (spray, resistance classes counted). To be noted: 18 g ai/ha (1x Hal.); number of plants 14 days after spraying; Total 28.
Text: T1 transformants were initially selected from the background of untransformed seeds using a glufosinate selection scheme. About 40000 T1 seeds were screened, and 380 T1 positive transformants (PAT gene) were identified with a transformation efficiency of about 0.95%. The plants that were transformed with the recombinant expression vector DBN100632 were Arabidopsis thaliana plants having an ALT-1-01 nucleotide sequence located in the cytoplasm introduced (At cytoplasmic ALT-1-01), and the plants that were transformed with the recombinant expression vector DBN100631 were Arabidopsis thaliana plants having an ALT-1-01 nucleotide sequence located in the chloroplast introduced (At chloroplastic ALT-1-01); the plants that were transformed with the recombinant expression vector DBN100634 were Arabidopsis thaliana plants having an ALT-2-01 nucleotide sequence located in the cytoplasm introduced (At cytoplasmic ALT-2-01), and the plants that were transformed with the recombinant expression vector DBN100633 were Arabidopsis thaliana plants having an ALT-2-01 nucleotide sequence located in the chloroplast introduced (At chloroplastic ALT-2-01); and the plants that were transformed with the recombinant expression vector DBN100636 were Arabidopsis thaliana plants having an ALT-3-01 nucleotide sequence located in the cytoplasm introduced (At cytoplasmic ALT-3-01), and the plants that were transformed with the recombinant expression vector DBN100635 were Arabidopsis thaliana plants having an ALT-3-01 nucleotide sequence located in the chloroplast introduced (At chloroplastic ALT-3-01). The herbicide tolerance effects of At cytoplasmic ALT-1-01 T1 plants, At chloroplastic ALT-1-01 T1 plants, At cytoplasmic ALT-2-01 T1 plants, At chloroplastic ALT-2-01 T1 plants, At cytoplasmic ALT-3-01 T1 plants, At chloroplastic ALT-3-01 T1 plants and wild-type Arabidopsis thaliana plants on halosulfuron-methyl were detected (14 days after sowing), respectively.
(§1) […] Plants were counted for the resistance situations 14 days after spraying: those having a consistent growth status with the blank solvent (water) group after 14 days were classified as highly resistant plants, those having a bolting height less than ½ of that of the blank solvent (water) group after 14 days were classified as moderately resistant plants, those still not capable of bolting after 14 days were classified as poorly resistant plants, and those dead after 14 days were classified as non-resistant plants. Since each Arabidopsis thaliana T1 plant was an independent transformation event, a significant difference in individual T1 responses could be expected at a given dose.
as §1, with “situation” for “situations”

Test [2] has as its system all the transformed Arabidopsis thaliana T1 plants (ALT-1, ALT-2 and ALT-3). The experiment in a line: Herbicide tolerance of Arabidopsis thaliana T1 plants. To be noted: 34 g ai/ha; summary of Table 1 and FIG. 4. The text has this:
At cytoplasmic ALT-1-01 T1 plants, At chloroplastic ALT-1-01 T1 plants, At cytoplasmic ALT-2-01 T1 plants, At chloroplastic ALT-2-01 T1 plants, At cytoplasmic ALT-3-01 T1 plants, At chloroplastic ALT-3-01 T1 plants and wild-type Arabidopsis thaliana plants were sprayed with halosulfuron-methyl (34 g ai/ha, 1-fold field concentration) and a blank solvent (water), respectively. Plants were counted for the resistance situations 14 days after spraying: those having a consistent growth status with the blank solvent (water) group after 14 days were classified as highly resistant plants, those having a bolting height less than ½ of that of the blank solvent (water) group after 14 days were classified as moderately resistant plants, those still not capable of bolting after 14 days were classified as poorly resistant plants, and those dead after 14 days were classified as non-resistant plants. Since each Arabidopsis thaliana T1 plant was an independent transformation event, a significant difference in individual T1 responses could be expected at a given dose.
At cytoplasmic ALT-1-01 T1 plants, At chloroplastic ALT-1-01 T1 plants, At cytoplasmic ALT-2-01 T1 plants, At chloroplastic ALT-2-01 T1 plants, At cytoplasmic ALT-3-01 T1 plants, At chloroplastic ALT-3-01 T1 plants and wild-type Arabidopsis thaliana plants in Example 4 were sprayed with iodosulfuron-methyl (10 g ai/ha, 1-fold field concentration), mesosulfuron (14 g ai/ha, 1-fold field concentration) and oxasulfuron (60 g ai/ha, 1-fold field concentration), respectively, in addition to halosulfuron-methyl (34 g ai/ha, 1-fold field concentration) and the blank solvent (water). Plants were counted for the resistance situation 14 days after spraying: those having a consistent growth status with the blank solvent (water) group after 14 days were classified as highly resistant plants, those having a bolting height less than ½ of that of the blank solvent (water) group after 14 days were classified as moderately resistant plants, those still not capable of bolting after 14 days were classified as poorly resistant plants, and those dead after 14 days were classified as non-resistant plants. Since each Arabidopsis thaliana T1 plant was an independent transformation event, a significant difference in individual T1 responses could be expected at a given dose.

The subject of test [3] is transgenic maize plants (ALT-1, ALT-2 and ALT-3). The test is described as follows: Halosulfuron-methyl tolerance of maize plants. To be noted: summary of Table 4. The procedure: Zm cytoplasmic ALT-1-02 maize plants, Zm chloroplastic ALT-1-02 maize plants, Zm cytoplasmic ALT-2-02 maize plants, Zm chloroplastic ALT-2-02 maize plants, Zm cytoplasmic ALT-3-02 maize plants, Zm chloroplastic ALT-3-02 maize plants and wild-type maize plants were respectively taken and sprayed with halosulfuron-methyl (36 g ai/ha, 4-fold field concentration) and a blank solvent (water). The damage degree caused by the herbicide was measured for each plant according to the plant growth status 3 days after spraying (3 DAT), 7 days after spraying (7 DAT), 14 days after spraying (14 DAT) and 21 days after spraying (21 DAT), respectively: considering a growth status equivalent to that of the untreated plants as having a damage degree of 0%; considering conditions of leaves being partially chlorotic and yellow but substantially not affecting the plant normal growth as having a damage degree of 50%; and considering the whole plant being purple and dying as having a damage degree of 100%. […]

In the case of `COC(=O)c1c(Cl)nn(C)c1S(=O)(=O)NC(=O)Nc1nc(OC)cc(OC)n1` [halosulfuron-methyl, 3-chlorine-5-(4,6-dimethoxypyrimidine-2-aminocarbonylaminosulphonyl)-1-methylpyrazole-4-carboxylic acid methyl ester], in test [1], the Highly resistant is reported as 1, the Moderately resistant was 6, the Non-resistant was 5 and the Poorly resistant is listed as 4. The “tolerance of the plants to the herbicide” value in test [2] is reported as “conferred halosulfuron-methyl herbicide tolerance to individual Arabidopsis thaliana plants”. Besides, the “tolerance of the plants to the herbicide” value in test [3] is “high level of halosulfuron-methyl herbicide tolerance”.
